Test results: ChEMBL document CHEMBL1152756, “Photodynamic effects of novel 5,15-diaryl-tetrapyrrole derivatives on human colon carcinoma cells” (Bioorg Med Chem, 2009)
Values after ≈ are worked out from the molar mass of the structure shown. Active and inactive are the calls of the source. The rule behind the calls is not given here.

Legend:
HCT-116 [1] = test: Phototoxicity against human HCT116 cells […] after 24 hrs irradiated with tungsten-halogen white light for 2 hrs followed by incubation in drug free medium for 24 hrs by MTT assay in presence of nitric oxide synthase inhibitor L-NMMA; type: functional, cell-based; conditions: HCT-116, light or radiation study
HCT-116 [2] = test: Phototoxicity against human HCT116 cells […] after 24 hrs irradiated with LED red light for 2 hrs followed by incubation in drug free medium for 24 hrs by MTT assay; type: functional, cell-based; conditions: HCT-116, light or radiation study
HCT-116 [3] = test: Cell cycle arrest in human HCT116 cells assessed as accumulation at S phase at IC50 after 24 hrs irradiated with tungsten-halogen white light for 2 hrs followed by incubation in drug free medium for 24 hrs by flow cytometry; type: functional
HCT-116 [4] = test: Induction of apoptosis in human HCT116 cells assessed as decrease in survivin protein expression at IC50 after 24 hrs irradiated with tungsten-halogen white light for 2 hrs followed by incubation in drug free medium for 24 hrs […]; type: functional, cell-based
HCT-116 [5] = test: Induction of apoptosis in human HCT116 cells assessed as decrease in Bcl2 protein expression at IC50 after 24 hrs irradiated with tungsten-halogen white light for 2 hrs followed by incubation in drug free medium for 24 hrs […]; type: functional, cell-based
HCT-116 [6] = test: Induction of NO radical generation in human HCT116 cells at IC50 after 24 hrs irradiated with tungsten-halogen white light for 2 hrs followed by incubation in drug free medium for 24 hrs; type: functional, cell-based
HCT-116 [7] = test: Phototoxicity against human HCT116 cells […] after 24 hrs irradiated with tungsten-halogen white light for 2 hrs followed by incubation in drug free medium for 24 hrs by MTT assay; type: functional, cell-based; conditions: HCT-116, light or radiation study
HCT-116 [8] = test: Cell cycle arrest in human HCT116 cells assessed as accumulation at G2/M phase at IC50 after 24 hrs irradiated with tungsten-halogen white light for 2 hrs followed by incubation in drug free medium for 24 hrs by flow cytometry; type: functional
HCT-116 [9] = test: Induction of ROS generation in human HCT116 cells at IC50 after 24 hrs irradiated with tungsten-halogen white light for 2 hrs followed by incubation in drug free medium for 24 hrs by flow cytometry; type: functional, cell-based
HCT-116 [10] = test: Induction of apoptosis in human HCT116 cells assessed as increase in Bax protein expression at IC50 after 24 hrs irradiated with tungsten-halogen white light for 2 hrs followed by incubation in drug free medium for 24 hrs […]; type: functional, cell-based
HCT-116 [11] = test: Induction of apoptosis in human HCT116 cells at IC50 after 24 hrs irradiated with tungsten-halogen white light for 2 hrs followed by incubation in drug free medium for 24 hrs using annexin V-FITC staining by FACS; type: functional, cell-based
HCT-116 [12] = test: Cell cycle arrest in human HCT116 cells assessed as accumulation at G1 phase at IC50 after 24 hrs irradiated with tungsten-halogen white light for 2 hrs followed by incubation in drug free medium for 24 hrs by flow cytometry; type: functional

Row | Structure (SMILES) | IC50 (HCT-116 [1]) | IC50 (HCT-116 [2]) | Activity (HCT-116 [3]) | Activity (HCT-116 [4]) | Activity (HCT-116 [5]) | Activity (HCT-116 [6]) | IC50 (HCT-116 [7]) | Activity (HCT-116 [8]) | Activity (HCT-116 [9]) | Activity (HCT-116 [10]) | Activity (HCT-116 [11]) | Activity (HCT-116 [12])
1 | Oc1cccc(-c2c3nc(cc4ccc([nH]4)c(-c4ccccc4)c4nc(cc5ccc2[nH]5)C=C4)C=C3)c1 | 0.482 ng/mL | 3.96 nM | 21.28% | Active | Active | Active | 0.683 ng/mL (≈ 1.43 nM) | 29.69% | Active | Active | Active | 49.03%
2 | COc1cccc(-c2c3nc(cc4ccc([nH]4)c(-c4ccccc4)c4nc(cc5ccc2[nH]5)C=C4)C=C3)c1 | – | – | 17.93% | Active | Active | – | – | 29.6% | – | Active | Active | 52.4%
3 | C1=Cc2nc1cc1ccc([nH]1)c(-c1ccccc1)c1nc(cc3ccc([nH]3)c2-c2ccccc2)C=C1 | – | – | 17.89% | Active | Active | – | – | 29.27% | – | Active | Active | 52.83%
4 | Oc1cccc(-c2c3nc(c(-c4cccc(O)c4)c4ccc([nH]4)c(-c4cccc(O)c4)c4nc(c(-c5cccc(O)c5)c5ccc2[nH]5)CC4)C=C3)c1 [TEMOPORFIN] | – | 41 nM | 21.29% | Active | Active | – | – | 27.17% | – | Active | Active | 51.53%
5 | Oc1cccc(-c2c3nc(cc4ccc([nH]4)c(-c4ccccc4)c4nc(cc5ccc2[nH]5)C=C4)CC3)c1 | – | 1.32 nM | – | – | – | – | – | – | – | – | – | –
